Assay results published in US20110166066A1, “CATESTATIN (CST) AND ITS VARIANTS FOR TREATMENT OF CARDIOVASCULAR AND METABOLIC DISORDERS” (priority 2008, published 2011).
Read-outs that look alike come from different tables or passages of the source. No end group written: not given here.

Legend:
ERK1/2 = test: Immunoblot of phosphorylated ERK1/2 in WT-CST perfused hearts; parameters: species or system rat; details: 110 nM
Procedure: Cardiac signaling—Hearts were perfused with or without 110 nM WT-Cts as before. At the end of experiment hearts were snap frozen under liquid nitrogen and homogenized with 1 ml of ice cold 0.2 M sucrose, Tris maleate (pH 7.0) buffer supplemented with 2 mM EDTA, pH 8.0, 1 mM sodium orthovanadate, 10 mM sodium pyrophosphate, 1 mM phenylmethylsulfonyl fluoride, 10 μg/ml leupeptin, 10 μg/ml aprotinin and 0.1 mM 3-isobutyl-1-methylxanthine. SR membrane fractions were isolated from cytosolic proteins as described before (27). Protein content was determined by Bradford assay (BIO-RAD) and 100 μg of cytosolic protein was subjected to SDS-PAGE immunoblot analysis for phosphorylated-ERK, total ERK (P-ERK and T-ERK; Santa Cruz, Calif.). […]
Statistics—Data are expressed as the mean±SEM. Curve fitting was accomplished in the program Kaleidagraph (Synergy Software, Reading, Pa.). […] For analysis of phosphorylated proteins, levels were quantified using Bio-Rad QuantifyOne and volumes of phosphorylated proteins were divided by the levels of non-phosphorylated proteins to calculate fold activation. Stimulation of protein activity was expressed as fold increase over vehicle-treated control. The means and S.E.M. were calculated for each treatment. […]

[1] = test system: WT and Chga knockout (KO) mice; test: Response to PE or SNP and baroreflex sensitivity in unconscious mice; format: in vivo; details: KO mice, CST 40 μg/g bw iv
Procedure: Unconscious mice. Surgical procedures for hemodynamic measurements: Hemodynamic evaluation in both WT and KO mice was performed under general anesthesia [ketamine (100 mg/kg) and xylazine (2.5 mg/kg)] while connected to a ventilator. LV pressure was monitored by Millar micromanometer catheter of size 1.4 French (0.46 mm; Millar Instruments, Houston, Tex.); it was inserted into the LV where phasic and mean pressure was continuously monitored (Gould, Cleveland, Ohio). A venous catheter (MicroRenathane tube MRE-033; Braintree Laboratories, Braintree, Mass.) is implanted on right femoral vein for injection of peptide and other reagents. All physiologic signals were acquired by WINDAQ (Dataq Instruments, Akron, Ohio) and analyzed by BP-Analysis software (developed for own laboratory).
Assessment of baroreflex sensitivity (BRS): BRS (in milliseconds per mmHg) was assessed by both high-pressure [phenylephrine (PE) bolus] and low-pressure [sodium nitroprusside (SNP) bolus] stimuli in unconscious mice. Although conscious animals provide optimal physiological data, a host of undesirable signals are triggered by physical activities, and sleep cycle alterations in behavioral state. Therefore, we have chosen to conduct the experiments in unconscious mice to avoid some of the pitfalls encountered in awake animals. The absolute changes of HR in response to changes in SBP induced by PE or SNP were subjected to linear regression analysis to determine BRS. To test the effect of CST on BRS in KO mice, CST was injected (40 μg/g bw iv) 30 min before the injection of PE or SNP through the catheter implanted into the femoral vein.
BRS to high-pressure stimulus. High pressure BRS was evaluated by recording diminution of HR in response to PE-induced hypertension. Changes in SBP and HR were recorded continuously for 0.5 min after a bolus injection of PE (0.005 μg/g bw iv). This dose was selected from a preliminary dose-response study (0.001-0.05 μg/g bw iv).
BRS to low-pressure stimulus. This was evaluated by recording increments in HR in response to SNP-induced fall in BP. Changes in SBP and HR were recorded continuously for 0.5 min after a bolus injection of SNP (0.05 μg/g bw iv). This dose was selected from a preliminary dose-response study (0.01-0.1 μg/g bw iv).

eNOS = eNOS signalling by immunoblotting of mouse tissues; format: in vivo; details: CgA-KO mice
Source text: Adult WT (C57BL/6) and CgA-KO mice with mixed genetic background (129svJ×C57BL/6) were used in this study. Both WT and KO mice were generated from the original founder carrying mixed genotype (50% 129svJ: 50% C57BL/6) and were maintained by brother/sister mating. Hypertensive CGA-KO mice will serve as a model for hyper insulin sensitivity. WT mice were fed 60% high fat diet (HFD) for 20 weeks. Body weight and blood glucose levels were monitored and glucose and insulin tolerance testa were performed to determine status of insulin resistance. After 20 weeks of HFD feeding mice were injected IP with catestatin (40 μg/gm body weight) twice daily for 7 days. On the 8th day, 12 hours fasted mice were subjected to glucose tolerance tests to determine their insulin sensitivity. Tissues of WT and CgA-KO mice are analyzed AMPK and eNOS signalling by immunoblotting.

ECs = test: In-vitro angiogenic effects on ECs (migration, proliferation, matrigel assay); format: cell-based
sympathochromaffin cells = details: in vitro, cited from earlier work

SSMKLSFRARAYGFRGPGPQL [WT-CST, catestatin]
Phosphorylation of ERK1/2 (ERK1/2): inhibited
Dampened baroreflex slope [1]: restored
eNOS signal (eNOS): reduced
Concentration of maximal function (ECs): 1 nM
Direct effects on ECs (ECs): exerts several direct effects on ECs including EC migration and proliferation
MAPK signaling pathway in ECs (ECs): induced activation of MAPK signaling pathway
Angiogenic effects at higher concentration (ECs; 100 nM, EC migration, proliferation, in-vitro matrigel assay): angiogenic effects were still observed
Rank order of potency, inhibition of catecholamine secretion (sympathochromaffin cells; listed as wild-type (WT)): Pro370Leu>wild-type (WT)>Gly364Ser>Arg374Gln
Rank order of potency, inhibition of catecholamine secretion (sympathochromaffin cells; listed as wildtype (WT)): Pro370Leu>wildtype (WT)>Gly364Ser>Arg374Gln
